Assays:
Assay in all cases: relative viability (nuclei count vs DMSO), 5 days (fraction); higher = more cells survive
[1] = test system: NCI-H727
In short: (§1)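 Five library-drug doses in √10 steps were combined with a fixed anchor-drug dose, or a single drug was given alone, by pin tool to lung cancer cell lines in 1536-well plates the day after seeding. Nuclei were stained and counted after 5 days. Relative viability is the nuclei count in treated wells over that in vehicle wells, taken as the median of duplicate plates.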

[2] = test system: NCI-H1651
In short: as §1

[3] = test system: NCI-H647
In short: as §1

[4] = test system: NCI-H1437
In short: as §1

[5] = test system: EKVX
In short: as §1

[6] = test system: HCC-15
In short: as §1

[7] = test system: HCC-44
In short: as §1

[8] = test system: COR-L23
In short: as §1

[9] = test system: NCI-H2087
In short: as §1

[10] = test system: EPLC-272H
In short: as §1

[11] = test system: UMC-11
In short: as §1

[12] = test system: ABC-1
In short: as §1

[13] = test system: LCLC-103H
In short: as §1

[14] = test system: NCI-H1792
In short: as §1

[15] = test system: HCC-827
In short: as §1

[16] = test system: NCI-H520
In short: as §1

[17] = test system: H3255
In short: as §1

[18] = test system: 201T
In short: as §1

[19] = test system: NCI-H661
In short: as §1

[20] = test system: NCI-H1975
In short: as §1

[21] = test system: NCI-H1650
In short: as §1

[22] = test system: NCI-H358
In short: as §1

[23] = test system: COR-L 105
In short: as §1

## Cc1cnc(-c2cnc(NCCNc3ccc(C#N)cn3)nc2-c2ccc(Cl)cc2Cl)[nH]1 + C[C@@H](Oc1cc(-c2cnn(C3CCNCC3)c2)cnc1N)c1c(Cl)ccc(F)c1Cl [Crizotinib] (partner 1 µM)
[1]; first compound 0.08 µM
  relative viability: 1.67
[1]; first compound 0.253 µM
  relative viability: 0.771
[1]; first compound 0.8 µM
  relative viability: 0.797
[1]; first compound 2.53 µM
  relative viability: 0.676
[2]; first compound 0.08 µM
  relative viability: 0.915
[2]; first compound 0.253 µM
  relative viability: 0.797
[2]; first compound 0.8 µM
  relative viability: 0.852
[2]; first compound 2.53 µM
  relative viability: 0.825
[3]; first compound 0.08 µM
  relative viability: 1.06
[3]; first compound 0.253 µM
  relative viability: 0.783
[3]; first compound 0.8 µM
  relative viability: 1.07
[3]; first compound 2.53 µM
  relative viability: 0.927
[4]; first compound 0.08 µM
  relative viability: 0.912
[4]; first compound 0.253 µM
  relative viability: 0.943
[4]; first compound 0.8 µM
  relative viability: 0.944
[4]; first compound 2.53 µM
  relative viability: 0.981
[5]; first compound 0.08 µM
  relative viability: 0.938
[5]; first compound 0.253 µM
  relative viability: 0.823
[5]; first compound 0.8 µM
  relative viability: 0.854
[5]; first compound 2.53 µM
  relative viability: 0.993
[6]; first compound 0.08 µM
  relative viability: 0.781
[6]; first compound 0.253 µM
  relative viability: 0.659
[6]; first compound 0.8 µM
  relative viability: 0.799
[6]; first compound 2.53 µM
  relative viability: 0.803
[7]; first compound 0.08 µM
  relative viability: 0.781
[7]; first compound 0.253 µM
  relative viability: 0.886
[7]; first compound 0.8 µM
  relative viability: 0.774
[7]; first compound 2.53 µM
  relative viability: 0.767
[8]; first compound 0.08 µM
  relative viability: 0.619
[8]; first compound 0.253 µM
  relative viability: 0.605
[8]; first compound 0.8 µM
  relative viability: 0.833
[8]; first compound 2.53 µM
  relative viability: 0.722
[9]; first compound 0.08 µM
  relative viability: 0.744
[9]; first compound 0.253 µM
  relative viability: 0.823
[9]; first compound 0.8 µM
  relative viability: 0.862
[9]; first compound 2.53 µM
  relative viability: 0.693
[10]; first compound 0.08 µM
  relative viability: 0.928
[10]; first compound 0.253 µM
  relative viability: 0.872
[10]; first compound 0.8 µM
  relative viability: 0.832
[10]; first compound 2.53 µM
  relative viability: 0.883
[11]; first compound 0.08 µM
  relative viability: 0.82
[11]; first compound 0.253 µM
  relative viability: 0.551
[11]; first compound 0.8 µM
  relative viability: 0.598
[11]; first compound 2.53 µM
  relative viability: 0.602
[12]; first compound 0.08 µM
  relative viability: 1.03
[12]; first compound 0.253 µM
  relative viability: 0.831
[12]; first compound 0.8 µM
  relative viability: 1.23
[12]; first compound 2.53 µM
  relative viability: 1.05
[13]; first compound 0.08 µM
  relative viability: 1.04
[13]; first compound 0.253 µM
  relative viability: 1.12
[13]; first compound 0.8 µM
  relative viability: 0.984
[13]; first compound 2.53 µM
  relative viability: 0.954
[14]; first compound 0.08 µM
  relative viability: 0.975
[14]; first compound 0.253 µM
  relative viability: 0.803
[14]; first compound 0.8 µM
  relative viability: 0.947
[14]; first compound 2.53 µM
  relative viability: 0.936
[15]; first compound 0.08 µM
  relative viability: 0.929
[15]; first compound 0.8 µM
  relative viability: 0.882
[15]; first compound 2.53 µM
  relative viability: 0.923
[16]; first compound 0.08 µM
  relative viability: 0.901
[16]; first compound 0.253 µM
  relative viability: 0.75
[16]; first compound 0.8 µM
  relative viability: 0.765
[16]; first compound 2.53 µM
  relative viability: 0.755
[17]; first compound 0.08 µM
  relative viability: 1.03
[17]; first compound 0.253 µM
  relative viability: 0.809
[17]; first compound 0.8 µM
  relative viability: 0.853
[17]; first compound 2.53 µM
  relative viability: 0.79
[18]; first compound 0.08 µM
  relative viability: 1.07
[18]; first compound 0.253 µM
  relative viability: 0.982
[18]; first compound 0.8 µM
  relative viability: 1.02
[18]; first compound 2.53 µM
  relative viability: 0.998
[19]; first compound 0.08 µM
  relative viability: 0.924
[19]; first compound 0.253 µM
  relative viability: 0.941
[19]; first compound 0.8 µM
  relative viability: 0.947
[19]; first compound 2.53 µM
  relative viability: 0.867
[20]; first compound 0.08 µM
  relative viability: 0.968
[20]; first compound 0.253 µM
  relative viability: 0.907
[20]; first compound 0.8 µM
  relative viability: 0.906
[20]; first compound 2.53 µM
  relative viability: 0.569
[21]; first compound 0.08 µM
  relative viability: 0.92
[21]; first compound 0.253 µM
  relative viability: 0.909
[21]; first compound 0.8 µM
  relative viability: 1.07
[21]; first compound 2.53 µM
  relative viability: 0.844
[22]; first compound 0.08 µM
  relative viability: 0.609
[22]; first compound 0.253 µM
  relative viability: 0.548
[22]; first compound 0.8 µM
  relative viability: 0.569
[22]; first compound 2.53 µM
  relative viability: 0.46
[23]; first compound 0.08 µM
  relative viability: 0.869
[23]; first compound 0.253 µM
  relative viability: 0.716
[23]; first compound 0.8 µM
  relative viability: 0.706
[23]; first compound 2.53 µM
  relative viability: 0.529
